Experimental data published in US11376307B2, “Compositions and methods of treating cancer with glycomimetic peptides” (SUSAVION BIOSCIENCES, INC., priority 2018, dated 2022).
Positions of bridges follow the written chain, without caps; N, C: chain ends. Chains are numbered I, II in the order given.

How the values were obtained:
human ASGPR-1 = target: T1, human ASGPR-1 (Homo sapiens, UniProt P07306); experiment: Solid-phase binding assay with recombinant receptors; details: biotinylated tetravalent peptide
T1 construct: The extracellular domains of receptors, which were fused with the Fc domain of immunoglobulin IgG; purchased R&D Systems
T1 sequence (P07306 62-291 limits assumed): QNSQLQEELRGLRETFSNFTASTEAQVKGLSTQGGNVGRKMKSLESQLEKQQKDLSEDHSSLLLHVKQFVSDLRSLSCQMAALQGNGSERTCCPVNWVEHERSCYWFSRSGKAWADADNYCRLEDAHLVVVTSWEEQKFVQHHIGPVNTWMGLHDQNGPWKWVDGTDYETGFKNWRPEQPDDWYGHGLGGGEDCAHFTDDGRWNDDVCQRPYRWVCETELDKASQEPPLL
Experimental: (§1) Binding Assays Solid-phase binding assays were performed with streptavidin-, protein A/G-, or Nickel-coated microtiter plates (Pierce). His-tagged or Fc-fusion recombinant receptors (R&D Systems, Minneapolis, Minn.) were reconstituted in PBS. Sufficient receptors were added to wells to saturate the coating. His-tagged receptors were added to each well at a 5-fold excess over the stated capacity of the Ni coating to minimize non-specific binding of the peptide. Wells were washed three times with binding buffer (25 mM Tris HCl, pH 7.4, 150 mM NaCl, 0.05% Tween-20) to remove unbound receptor and 50 μL of 2 μM biotinylated peptide in binding buffer were added and allowed to incubate for 1 h. The wells were washed four times with binding buffer and then incubated with 50 μL of 1 μg/mL streptavidin conjugated with peroxidase (Sigma-Aldrich) for 1 h. The wells were washed five times with binding buffer and 50 μL of peroxidase substrate (1-Step™ Ultra TMB, Pierce) were added. After several minutes to allow color development, the reaction was stopped with 50 μL 1 M H3PO4 and absorbance was measured at 450 nm. Bound streptavidin was quantitated by the specific activity of peroxidase (absorbance/ng protein conjugate/min) under the conditions of the assay.
(§2) Solid-phase binding assays were performed with recombinant human receptors. Three variations of the binding assay were used in this study, all of which allowed the arms of the tetravalent peptide to have full flexibility. (i) Biotinylated peptide was bound in microtiter wells coated with streptavidin and incubated with recombinant human receptors. After extensive washing, the bound receptor was measured by peroxidase conjugated to a receptor-specific antibody. (ii) The extracellular domains of receptors, which were fused with the Fc domain of immunoglobulin IgG, were bound in wells coated with protein A/G. Biotinylated peptide was incubated with the receptors and, after extensive washing, bound peptide was measured with streptavidin conjugated with peroxidase. Or (iii), recombinant receptors with a poly-His tag were bound to Nickel-coated wells and incubated with biotinylated peptide. svL4 and sv6D contain His residues (FIGS. 1A, 1C) and can bind to the Ni coating, which was minimized by adding sufficient poly-His-tagged receptor to saturate the Ni coating.

[1] = target: T2, recombinant human CLEC10A (Homo sapiens, UniProt Q8IUN9); experiment: as above; details: for Binding to CLEC10A: biotinylated tetravalent peptide
T2 construct: The extracellular domains of receptors, which were fused with the Fc domain of immunoglobulin IgG; purchased R&D Systems
T2 sequence (Q8IUN9 61-316 limits assumed): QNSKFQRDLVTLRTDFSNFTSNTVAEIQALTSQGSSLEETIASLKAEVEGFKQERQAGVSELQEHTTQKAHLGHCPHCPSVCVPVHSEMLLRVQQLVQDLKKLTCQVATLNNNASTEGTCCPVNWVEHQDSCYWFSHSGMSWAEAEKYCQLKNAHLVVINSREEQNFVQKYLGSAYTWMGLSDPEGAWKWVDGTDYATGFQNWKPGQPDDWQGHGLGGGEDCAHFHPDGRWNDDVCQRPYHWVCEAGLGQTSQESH
Experimental: as §1, §2

peritoneal immune cells = experiment: Expansion of peritoneal cells after subcutaneous injection, flow cytometry; format: in vivo, C57BL/6 mice; details: for Change in mature, active peritoneal immune cell populations: 1 nmol/g s.c. on days 0, 2, 4, cells 24 h after each injection
Experimental: FIGS. 7A-7D. Expansion of peritoneal cells in C57BL/6 mice. Mice were injected subcutaneously at a dose of 1 nmol/g body weight of svL4, sv6D or svC1. Cells in each population recovered in a peritoneal lavage are expressed as cell counts (in thousands). Cells from three mice in each treatment group were pooled for analysis. The number of cells in each population was normalized to the average recovery of total cells from all groups. For each cell type, the left-hand, middle and right-hand set of bars represent samples from mice treated with svL4, sv6D or svC1, respectively. Mice were injected on days 0, 2 and 4, and cells were collected 24 h after each injection. Day 1, open bar; day 3, grey bar; day 5, black bar. Populations that express activation markers are indicated by an asterisk.
Flow Cytometry Healthy C57BL/6 male mice, 10 weeks old, were injected subcutaneously with peptides on alternate days. Peritoneal cells were isolated from mice 24 h after dosing by injecting ice cold PBS (containing 3% FBS) into the peritoneal cavity, gently massaging the abdomen, and then collecting the fluid, which was transferred into K2EDTA-treated tubes for evaluation of specific biomarkers. Cells from three mice in each group were pooled, counted and divided among FACS tubes (1×10^6 cells per tube). Cells were washed once in PBS containing 3% FBS, then stained with 0.25 to 1 μg of fluorescently conjugated antibody per 10^6 cells in 100 μL of buffer as recommended by the manufacturer (Table 1).
Cells were incubated with the antibodies for 30 min at 4° C. in the dark. Following staining, the cells were washed two times with PBS/3% FBS and immediately analyzed with a MACSQuant flow cytometer (Miltenyi Biotech, Inc., San Diego, Calif.). Compensation was performed using single stain tubes for each color present in the analysis as well as an unstained control sample. Collection of flow cytometric data and analysis with FlowJo software, version 10.0.6 (FlowJo, LLC, Ashland, Oreg.) were performed by Biomodels LLC (Watertown, Mass.).
To examine whether increases occurred in mature immune cells, peritoneal cells from Balb/c and C57BL/6 mice were analyzed by flow cytometry after cells were stained with the markers listed in Table 1. […] To explore this observation more extensively, svL4 or sv6D was injected into C57BL/6 mice on day 0, 2 or 4. Peritoneal cells were examined by flow cytometry 24 h after each injection. Shown in FIGS. 7A-7D are results expressed as cell counts for F4/80 CD11b CD86 (mature, active macrophages); CD11c (DCs); CD11c CD86 (activated DCs); CD4 CD69 (activated T cells); CD8 CD69 (activated cytotoxic T cells); NK1.1 CD3^+ CD69 (activated NKT cells); NK1.1 CD3^− CD69 (activated NK cells); CD19 (B cells); and CD19 CD73 CD80 CD273 (memory B cells). The numbers of these mature, activated cells continued to increase with each injection.

[2] = test system: monocytes in the peritoneal cavity; experiment: Response of peritoneal monocytes in RAG−/− mice; format: in vivo; details: mice lacking B and T cells
Experimental: To determine whether the target(s) for svL4 is located on lymphocytes, with subsequent cross-talk signaling to achieve activation of monocytes, an experiment was performed in which svL4 was injected into RAG^−/− mice, which lack activity of rag, the recombination activation gene. The ability to perform recombination to generate antigen-specific antibodies by V(D)J recombination is required for B and T cell precursors to produce functional antigen receptors on their surface, and without a functional rag gene these cells undergo apoptosis.

Substance | Binding to ASGPR-1 (human ASGPR-1) | Binding to CLEC10A [1] | Ca2+ dependence of binding ([1]; chelation of Ca2+ with low concentrations of EGTA, CLEC10A and ASGPR-1) | Change in mature, active peritoneal immune cell populations (peritoneal immune cells) | Overall peritoneal cell responses compared with svL4 (peritoneal immune cells; DCs, T cells, NKT cells, days 0, 2, 4) | Injection after which a significant increase in peritoneal cells occurred (peritoneal immune cells; 1 nmol/g s.c.) | Response of CD19+ B cells (peritoneal immune cells; compared with sv6D) | Response of peritoneal monocytes [2]
I: H-NQHTPRGGGSKK-NH2 / II: H-NQHTPRGGGSK / III: H-NQHTPRGGGS / IV: H-NQHTPRGGGS (amide I:11-IV:C, I:12-II:C, II:11-III:C) [sv6D] | bound as strongly as the full-length sequence | bound as strongly as the full-length sequence | requires Ca^2+ | several-fold increases | greater than those to svL4 | – | – | –
I: H-VQATQSNQHTPRGGGSKK-NH2 / II: H-VQATQSNQHTPRGGGSK / III: H-VQATQSNQHTPRGGGS / IV: H-VQATQSNQHTPRGGGS (amide I:17-IV:C, I:18-II:C, II:17-III:C) [svL4] | bound | bound | – | several-fold increases | – | only after the second injection | responded more strongly | essentially the same as that in C57BL/6 mice
